Several values for one entry are separate records, joined by “and”; a condition that tells them apart may be missing. Equal values may be shown once. Non-standard residues stand in square brackets, D forms with d. Residues, ends and D or L forms follow the SMILES beside them. ξ: configuration not given here. *: point of attachment. ξF = NC(Cc1ccccc1)C(=O)O; Cbz = O=C(OCc1ccccc1)*
How the values were obtained:
[1] = system: rat glial cells C6; assay: Protection from necrosis induced by maitotoxin, C6 (wst-1 viability); assay type: cell-based
Protocol: Human neuroblastomas SHSY5Y and rat glial cells C6 are seeded at 25 000 cells per well in 96-well plates in DMEM 10% FBS for 24 hours. The L6 rat myoblasts are seeded at 1000 cells per well in DMEM 10% FBS on 96-well microplates coated beforehand with gelatin 0.5% PBS. After culture for 3 days the medium is removed and replaced with a differentiation medium (DMEM+10 μg/ml of insulin+100 μg/ml of transferrin). 50 μl of product A plus 50 μl of solvent or 50 μl of product B are placed in the wells. After incubation for 1 hour at 37° C. under an atmosphere of 5% CO2, 10 μl of maitotoxin is added in order to obtain a final concentration of 0.1 nM to 1 nM (according to the cell type). After incubation for 3 hours at 37° C. under an atmosphere of 5% CO2, the cell viability is determined by adding 10 μl of tetrazolium salts (wst-1, Roche, ref: 1644807). The tetrazolium salts are cleaved into formazan molecules by mitochondrial dehydrogenases. The quantity of formazan formed is directly correlated to the number of metabolically active cells in the culture. Measurement of the absorbance of the formazan is carried out using a multiwell photometer at a wavelength of 420 nm against a reference wavelength of 620 nm.
The theoretical effect was obtained by multiplying the percentage of dead cells in the presence of product A by the percentage of dead cells in the presence of product B (Table 3). The percentage protection against cell death induced by MTX being the percentage of cells kept alive in the presence of the product or products.
In the light of the previous results, the combination of Example 1 with product A and product B at a rate of 100 μM of each of the products is carried out on human neuroblastomas (SHSY5Y; (Table 5A) and on glial cells with 25 μM of product A and 50 μM of product B (C6; Table 5B) on a larger number of cases.

[2] = system: lipidic peroxidation of rat cerebral cortex homogenate; assay: In vitro lipidic peroxidation (Fenton reaction, MDA) in rat cerebral cortex membranes; assay type: biochemical; settings: iron/ascorbate, read-out: Inhibition of lipidic peroxidation [IC50 (μM)]
Protocol: The test consists of inducing lipidic peroxidation by Fenton reactions in the presence of iron and ascorbate. The degree of lipidic peroxidation is determined by the concentration of malonaldehyde (MDA). The MDA produced by the lipidic peroxidation of unsaturated fatty acids is a good indicator of lipidic peroxidation (Esterbauer et al, 1990; Meth. Enzymol. 186: 407421). For this colorimetric test, the condensation of a molecule of MDA with two molecules of chromogenic reagent R (N-methyl-2-phenylindole) produces a stable chromophore the maximum absorbance wavelength of which is equal to […].
The membranes are prepared from the cortexes of male Sprague Dawley rats weighing 200 to 250 g. The animals are sacrificed by decapitation and the brains are immediately removed and rinsed in cold Tris HCl 20 mM pH 7.4. The cortexes, after dissection and removal of the white matter, are then ground with the Thomas potter, in Tris HCl buffer 20 mM pH 7.4 at 4° C. The homogenate obtained is centrifuged at low speed in order to eliminate the large debris (515 g for 15 minutes at 4° C.). The supernatant is then distributed into polycarbonate centrifugation tubes and centrifuged at 51500 g for 25 min at 4° C. The membrane pellets are kept at −80° C.
On the day of the experiment, the frozen membranes are resuspended at a concentration of 0.5 equivalent grams of cortex per 5 ml of Tris HCl buffer 20 mM pH 7.4 and homogeneized using a combitips. In 96-well “deep-well” 1 ml polypropylene plates with a conical base, 5 μl per well of the product to be tested or of solvent is mixed with 40 μl of rat cerebral cortex homogenate by centrifugation (800 rpm). The plates are covered with a self-adhesive aluminium sheet and incubated at 37° C. for 15 minutes under agitation. […]
The membranes and the supernatants are separated by filtration under vacuum on a 96-well plate with a multiscreen filtering base NA (Millipore, ref: MANANLY 50). The absorbance of the supernatants recovered in the 96-well plates is read using a photometer.

[3] = molecular target: T1, human calpain I (Homo sapiens, UniProt P07384); assay: Effects on human calpain I (acellular, Suc-Leu-Tyr-AMC fluorescence); assay type: biochemical; settings: enzyme purified from human erythrocytes; 1 h at 25°C; read-out: Inhibition human calpain I, acellular [IC50 (nM)]
T1 construct: enzyme purified from human erythrocytes; purchased Calbiochem 208713; host or cells: human erythrocytes (native tissue source)
T1 sequence (P07384 1-714): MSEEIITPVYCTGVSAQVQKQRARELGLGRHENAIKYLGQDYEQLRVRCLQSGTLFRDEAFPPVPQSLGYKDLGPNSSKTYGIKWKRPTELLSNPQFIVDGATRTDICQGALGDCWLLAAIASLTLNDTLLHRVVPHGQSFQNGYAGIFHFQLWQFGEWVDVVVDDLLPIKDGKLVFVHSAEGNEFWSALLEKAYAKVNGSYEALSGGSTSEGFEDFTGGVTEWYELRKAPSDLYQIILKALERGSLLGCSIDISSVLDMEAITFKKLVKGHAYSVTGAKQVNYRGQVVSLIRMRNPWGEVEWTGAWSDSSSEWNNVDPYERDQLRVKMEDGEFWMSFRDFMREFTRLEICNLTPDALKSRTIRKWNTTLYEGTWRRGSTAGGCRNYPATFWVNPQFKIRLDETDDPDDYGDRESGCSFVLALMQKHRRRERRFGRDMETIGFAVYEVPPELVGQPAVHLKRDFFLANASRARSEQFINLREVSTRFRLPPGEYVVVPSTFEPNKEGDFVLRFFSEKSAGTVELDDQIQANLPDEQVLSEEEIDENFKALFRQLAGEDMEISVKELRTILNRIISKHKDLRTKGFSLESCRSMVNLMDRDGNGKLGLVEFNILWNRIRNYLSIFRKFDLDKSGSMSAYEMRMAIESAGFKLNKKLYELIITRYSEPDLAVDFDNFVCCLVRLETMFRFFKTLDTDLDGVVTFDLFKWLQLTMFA
T1 sequence (P04632 1-268 partner): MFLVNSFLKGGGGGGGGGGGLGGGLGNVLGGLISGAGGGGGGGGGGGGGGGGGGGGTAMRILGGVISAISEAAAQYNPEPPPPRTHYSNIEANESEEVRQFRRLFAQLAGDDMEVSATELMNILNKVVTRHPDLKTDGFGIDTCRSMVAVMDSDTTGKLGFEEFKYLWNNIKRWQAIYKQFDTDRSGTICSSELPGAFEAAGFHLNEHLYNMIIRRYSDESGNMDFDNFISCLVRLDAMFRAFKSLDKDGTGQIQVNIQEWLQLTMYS
Protocol: The test consists of measuring the activity of the enzyme (enzyme purified from human erythrocytes) which is incubated in a buffer in the presence of a peptide substrate coupled with a fluorochrome (amino-methylcourmarin, AMC) and calcium. The enzyme activated by the calcium, proteolyses the substrate and releases the AMC fragment. The AMC released fluoresces at 460 nm under excitation at 380 nm. The activity of the enzyme is therefore proportional to the quantity of fluorescence i.e. of free AMC fragment. The fluorescence (380/460 nm) is measured using a multi-well fluorimeter (Victor 2, Wallac).
Assay is carried out in 96-well microplates with transparent bottoms and black walls in which 10 μl per well of substance to be tested in DMSO 10%, 45 μl of reaction mixture containing the human calpain I at 2.2 U/ml (Calbiochem, ref: 208713), the Suc Leu Tyr-AMC substrate (Bachem, ref: I-1355) at 1.1 mM in a buffer (Tris-HCl 110 mM; NaCl 110 mM; EDTA 2.2 mM; EGTA 2.2 mM; mercaptoethanol 1.1 mM) are distributed. The reaction is initiated by adding 45 μl of CaCl2 22mM. To determine the background noise, control wells without calcium are added to the plate (10 μL DMSO 10%+45 μL of buffer with the enzyme and the susbtrate +45 μL H2O). In order to determine the total activity of the enzyme control wells containing no product are added to the plate (10 μL DMSO 10%+45 μL of buffer with the enzyme and the substrate +45 μL of CaCl2 22 mM ). Each concentration of the products (0.1 nM to 10 μM) is tested in duplicate. The plates are shaken and incubation takes place for one hour at 25° C. in darkness. The fluorescence is read at 380/460 nm using the Victor.

[4] = system: calpain activity in rat glial cells (C6); assay: In situ calpain activity in rat glial cells C6 stimulated by maitotoxin; assay type: cell-based; settings: read-out: Inhibition human calpain I, in situ (C6) [IC50 (nM)]; n = 3; maitotoxin 1 nM; 1 h 30 min
Protocol: Human neuroblastomas SHSY5Y and rat glial cells C6 are seeded at a rate of 50,000 and 25,000 cells respectively per well on 96-well plates in DMEM 10% FBS. The next day, the cells which have adhered are washed 3 times in DMEM medium without serum and 40 mM Hepes. 100 microlitres of product B is placed in the wells. After incubation for 1 hour at 37° C. under an atmosphere of 5% CO2, 10 μl containing the fluorescent substrate of calpain (Suc-Leu-Tyr-AMC) and maitotoxin (Sigma, ref: M-9159), in order to obtain a final concentration in the well of 100 μM and of 1 nM respectively are added.
In order to determine the total activity of the cell enzyme, wells containing no product are added to the plate (100 μL DMSO 100th plus 10 μl of MTX and substrate). The background noise is determined by adding control wells with no MTX. Each concentration of the products (0.3 μM to 200 μM for the SHSY5Y's and 0.01 μM to 100 μM for the C6's) is tested in triplicate. The plates are shaken, the fluorescence is read at 380/460 nm using the Victor at T zero. Incubation takes place for four hours for the SHSY5Y and 1 hour 30 minutes for the C6 cells at 30° C. in darkness.

[5] = single product at 100 μM, n = 1

## Oc1ccc(Nc2ccccc2)cc1 [EXAMPLE 5 A, 4-hydroxydiphenylamine]
[1]; [5]
  Protection from necrosis induced by MTX on C6: 17.90%
[1]; single product at 100 μM, n = 1, listed as EXAMPLE 6 A
  Protection from necrosis induced by MTX on C6: 9.43%
[2]
  IC50: 0.093 µM

## CC(C)C[C@H](NC(=O)OCc1ccccc1)C(=O)NC(C=O)Cc1ccccc1 (stereo partly drawn) [EXAMPLE 2 B, benzyl (1S)-1-{[(1-benzyl-2-oxoethyl)amino]carbonyl)-3-methylbutylcarbamate] (Cbz-Leu-[ξF]-aldehyde)
[3]
  IC50: 8 nM
[4]
  IC50: 2200 ± 290 nM
[1]; single product at 50 μM, n = 3 for Example 2, else n = 1
  Protection from necrosis induced by MTX on C6: 12.05 ± 2.82%
[1]; single product at 50 μM, n = 3 for Example 2, else n = 1, listed as Z-Leu-Phe-H
  Protection from necrosis induced by MTX on C6: inactive

## O=C(O)C(S)=Cc1ccc(I)cc1 [EXAMPLE 4 B, 3-(4-iodophenyl)-2-mercapto-2-propenoic acid]
[3]
  IC50: 5140 nM
[1]; single product at 25 μM
  Protection from necrosis induced by MTX on C6: 0.69%
[1]; [5]
  Protection from necrosis induced by MTX on C6: 0.36% and 2.75%

## CC(=O)N[C@@H](CC(C)C)C(=O)N[C@@H](CC(C)C)C(=O)N[C@H](C=O)CCCNC(=N)N [LEUPEPTIN, leupeptin]
[3]
  IC50: 73 nM

— patent US20070265208A1, “Association of calpain inhibitors and reactive oxygen species trapping agents” (priority 2000, published 2007)
